Laboratory results: the supplement of paper PMC10307832

What was measured:
Experiment in all cases: relative viability (nuclei count vs DMSO), 5 days (fraction); higher = more cells survive
Tosedostat + Trametinib = compound: CC(C)C[C@@H](C(=O)N[C@H](C(=O)OC1CCCC1)c1ccccc1)[C@H](O)C(=O)NO [Tosedostat] + CC(=O)Nc1cccc(-n2c(=O)n(C3CC3)c(=O)c3c(Nc4ccc(I)cc4F)n(C)c(=O)c(C)c32)c1 [Trametinib] (partner 0.02 µM)
In short: (§1)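 One day after seeding in 1536-well plates, lung cancer cell lines were dosed by pin tool. Dosing was either single-drug or a fixed anchor-drug dose plus five library-drug doses (not always all listed) in √10 steps. After 5 days, nuclei were stained in one fix-and-stain step and counted on 4× images, and relative viability is the nuclei count of treated wells over that of vehicle wells, given as the median of duplicate plates.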

[1] = compound: CC1=NN=C(O1)C2=NN=C(C=C2)N3CCC(CC3)OC4=C(C=CC(=C4)F)Cl + CC1(C)CCC(c2ccc(Cl)cc2)=C(CN2CCN(c3ccc(C(=O)NS(=O)(=O)c4ccc(N[C@H](CCN5CCOCC5)CSc5ccccc5)c(S(=O)(=O)C(F)(F)F)c4)cc3)CC2)C1 [Navitoclax] (partner 0.5 µM)
In short: as §1

[2] = compound: CC1=NN=C(O1)C2=NN=C(C=C2)N3CCC(CC3)OC4=C(C=CC(=C4)F)Cl
In short: (§2)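 Five library-drug doses, separated by factors of √10, were pinned into 1536-well plates holding lung cancer cell lines after an overnight stay at 37 °C. Cells were fixed, permeabilised and Hoechst-stained in one step after 5 days without medium change, then imaged at 4×. Viability compares treated-well with vehicle-well nuclei, counted in MetaXpress, as a median across plates. Passing plates had control CV below 25% and at least one doubling.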

Tosedostat = compound: CC(C)C[C@@H](C(=O)N[C@H](C(=O)OC1CCCC1)c1ccccc1)[C@H](O)C(=O)NO [Tosedostat]
In short: as §2

Cell Line	relative viability (Tosedostat + Trametinib; first compound 0.02 µM)	relative viability (Tosedostat + Trametinib; first compound 0.06325 µM)	relative viability (Tosedostat + Trametinib; first compound 0.2 µM)	relative viability (Tosedostat + Trametinib; first compound 0.6325 µM)	relative viability (Tosedostat + Trametinib; first compound 2 µM)	relative viability ([1]; first compound 0.8 µM)	relative viability ([1]; first compound 2.53 µM)	relative viability ([1]; first compound 8 µM)	relative viability ([2]; 0.8 µM)	relative viability ([2]; 2.53 µM)	relative viability ([2]; 8 µM)	relative viability (Tosedostat; 0.02 µM)	relative viability (Tosedostat; 0.06325 µM)	relative viability (Tosedostat; 0.2 µM)	relative viability (Tosedostat; 0.6325 µM)	relative viability (Tosedostat; 2 µM)	relative viability ([1]; first compound 0.253 µM)	relative viability ([2]; 0.253 µM)
LOU-NH91	0.787	0.803	0.824	0.766	0.777	0.577	0.697	0.705	0.866	0.908	0.957	1.04	1.01	0.937	0.919	0.86	–	–
EMC-BAC-2	0.942	0.849	0.83	0.727	0.675	0.909	1.03	0.936	0.872	0.891	0.615	1.09	1.16	0.952	0.919	0.811	0.998	0.98
LK-2	0.903	0.819	0.614	0.628	0.78	0.928	0.808	0.915	0.823	1.01	1.02	1.13	1.11	0.926	0.954	1.13	0.873	0.965
NCI-H2405	0.652	0.657	0.79	0.699	0.614	0.722	0.784	0.83	0.495	0.553	0.525	1.16	1	0.991	0.95	0.92	0.902	0.577
NCI-H520	0.731	0.733	0.645	0.699	0.67	0.566	1.05	1.09	0.813	1.16	0.968	1.02	0.977	0.937	1.15	1.14	0.926	0.91
LCLC-103H	0.678	0.682	0.713	0.721	0.779	–	–	–	0.71	0.705	0.632	1.06	0.95	1	1.11	1.07	–	0.604
NCI-H1299	–	–	–	–	–	0.932	0.894	0.835	0.9	0.892	0.852	1.09	0.995	0.985	0.968	0.939	0.895	0.961
ABC-1	–	–	–	–	–	–	–	–	0.421	0.473	0.472	1.24	0.869	0.911	0.928	0.765	–	0.374
NCI-H1703	–	–	–	–	–	0.987	0.783	0.71	0.873	0.933	0.829	0.995	0.789	0.763	0.572	0.726	0.9	0.786
NCI-H1563	–	–	–	–	–	–	–	–	0.954	0.995	0.993	1.03	1.07	1.05	1.13	1.08	–	0.986
NCI-H661	0.688	0.596	0.579	0.613	0.637	–	–	–	0.816	0.731	0.71	1.01	0.991	0.948	0.926	0.934	–	0.859
NCI-H1648	0.417	0.447	0.476	0.477	0.336	–	–	–	0.462	0.56	0.496	1.01	0.923	0.881	0.935	0.578	–	0.435
A549	–	–	–	–	–	0.652	0.599	0.587	0.611	0.575	0.541	1.05	0.945	0.922	0.929	0.815	0.778	0.69
NCI-H522	0.716	0.796	0.752	0.895	0.78	–	–	–	0.933	0.957	0.955	0.908	1.01	0.897	1.05	1.01	–	0.964
NCI-H1623	–	–	–	–	–	–	–	–	0.734	0.918	0.926	1.06	0.895	0.907	0.798	0.965	–	0.897
SW 900	0.696	0.754	0.777	0.639	0.609	–	–	–	0.545	0.805	0.574	0.887	0.952	0.855	0.767	0.669	–	–
IA-LM	–	–	–	–	–	0.137	0.127	0.12	0.142	0.171	0.155	1.07	0.963	0.918	0.858	0.769	0.131	0.169
NCI-H358	0.144	0.126	0.13	0.113	0.133	–	–	–	0.563	0.589	0.49	1.11	0.866	0.782	0.452	0.425	–	0.628
EBC-1	–	–	–	–	–	0.375	0.26	0.276	0.735	0.81	0.606	0.994	0.934	0.946	0.785	0.683	0.352	0.663
